Measurements taken from ChEMBL document CHEMBL1201862, “PubChem BioAssay data set” (2004).
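These data come from cells grown in 96-well plates and exposed to compound for 48 hours at five concentrations. GI50 marks 50% less growth.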 Active and inactive are the calls of the source. Cut-off read from the data, not from the text of the source: active = GI50 up to about 1.1 µM and inactive = higher.

Experiments:
Experiment in all cases: NCI tumour cell line growth inhibition, 48 h
SR = test system: SR
HOP-62 = test system: HOP-62
SK-OV-3 = test system: SK-OV-3
DU-145 = test system: DU-145
SF-539 = test system: SF-539
NCI-H460 = test system: NCI-H460
TK-10 = test system: TK-10
KM12 = test system: KM12
RXF 393 = test system: RXF 393
ACHN = test system: ACHN
COLO 205 = test system: COLO 205
HOP-92 = test system: HOP-92
OVCAR-4 = test system: OVCAR-4
UO-31 = test system: UO-31
MDA-MB-231 = test system: MDA-MB-231
HCC 2998 = test system: HCC 2998
SK-MEL-28 = test system: SK-MEL-28
Malme-3M = test system: Malme-3M
SK-MEL-5 = test system: SK-MEL-5
MDA-N = test system: MDA-N

Measured: GI50

CC(=O)Nc1ccc(S(=O)(=O)/N=c2/sc(S(N)(=O)=O)nn2C)cc1
inactive: SR > 100 µM | HOP-62 > 100 µM | SK-OV-3 > 100 µM | DU-145 > 100 µM | SF-539 > 100 µM | NCI-H460 > 100 µM | TK-10 > 100 µM | KM12 > 100 µM | RXF 393 > 100 µM | ACHN > 100 µM | COLO 205 > 100 µM | HOP-92 > 100 µM | OVCAR-4 > 100 µM | UO-31 > 100 µM | MDA-MB-231 > 100 µM | HCC 2998 > 100 µM | SK-MEL-28 > 100 µM | Malme-3M > 100 µM

CC1OC(OC2C(OC(=O)[C@@H]3CC(C)(C)C[C@@H]4C5=CC[C@@H]6[C@@]7(C)C[C@H](O)[C@H](OC8OC(CO)C(O)C(O)C8O)[C@@](C)(CO)C7[C@H](O)C[C@@]6(C)[C@]5(C)C[C@@H](O)[C@H]43)OCC(O)C2O)C(O)C(O)C1O (stereo not given in full)
inactive: HOP-62 > 15 µM | SK-OV-3 > 15 µM | DU-145 > 15 µM | SF-539 > 15 µM | NCI-H460 > 15 µM | TK-10 > 15 µM | KM12 > 15 µM | RXF 393 7.45 µM | ACHN > 15 µM | COLO 205 6.28 µM | HOP-92 > 15 µM | OVCAR-4 12.9 µM | UO-31 6.49 µM | MDA-MB-231 > 15 µM | HCC 2998 8.69 µM | SK-MEL-5 > 15 µM

CCOC(=O)C1=COC(C)(CCc2ccccc2)CC1=O (stereo not given)
inactive: HOP-62 > 100 µM | SK-OV-3 > 100 µM | DU-145 > 100 µM | SF-539 66.5 µM | NCI-H460 92.5 µM | TK-10 > 100 µM | KM12 56.2 µM | MDA-N 87.7 µM | RXF 393 59.4 µM | ACHN > 100 µM | COLO 205 > 100 µM | OVCAR-4 > 100 µM | UO-31 91.2 µM | MDA-MB-231 82.6 µM | SK-MEL-28 > 100 µM | SK-MEL-5 94 µM

CC1=NN(c2nc(N)nc(C/C(N)=N/O)n2)C(C)(C)C1
inactive: HOP-62 > 100 µM | SK-OV-3 > 100 µM | DU-145 > 100 µM | SF-539 > 100 µM | NCI-H460 > 100 µM | TK-10 > 100 µM | KM12 > 100 µM | ACHN > 100 µM | COLO 205 > 100 µM | HOP-92 > 100 µM | OVCAR-4 > 100 µM | UO-31 > 100 µM | MDA-MB-231 > 100 µM | HCC 2998 > 100 µM | SK-MEL-28 > 100 µM | SK-MEL-5 > 100 µM | Malme-3M > 100 µM

O=C1c2ccc3ccccc3c2CCC1N1CCCCC1 (stereo not given)
inactive: SR 15.1 µM | HOP-62 18.7 µM | SK-OV-3 22 µM | DU-145 16.7 µM | SF-539 14.6 µM | NCI-H460 22 µM | TK-10 16.1 µM | KM12 17.7 µM | RXF 393 20.6 µM | ACHN 17.7 µM | COLO 205 19.5 µM | HOP-92 16.6 µM | OVCAR-4 16.6 µM | UO-31 15.6 µM | MDA-MB-231 16.9 µM | SK-MEL-28 18.1 µM | SK-MEL-5 17 µM | Malme-3M 17.6 µM

O=C(NNC(=O)c1ccncc1)C(=O)Nc1cc(Cl)c(Cl)cc1Cl
inactive: HOP-62 > 100 µM | SK-OV-3 > 100 µM | SF-539 > 100 µM | NCI-H460 > 100 µM | TK-10 > 100 µM | KM12 > 100 µM | MDA-N > 100 µM | RXF 393 > 100 µM | ACHN > 100 µM | HOP-92 > 100 µM | OVCAR-4 > 100 µM | UO-31 > 100 µM | MDA-MB-231 > 100 µM | HCC 2998 21.5 µM | SK-MEL-28 > 100 µM | SK-MEL-5 > 100 µM | Malme-3M > 100 µM

O=C1O/C(=C(\Br)c2ccc([N+](=O)[O-])cc2)c2ccccc21
inactive: SR 28.8 µM | HOP-62 > 80.9 µM | SK-OV-3 > 100 µM | DU-145 > 100 µM | SF-539 > 100 µM | NCI-H460 > 100 µM | TK-10 > 100 µM | KM12 > 100 µM | MDA-N > 66.2 µM | RXF 393 > 100 µM | ACHN > 100 µM | COLO 205 > 100 µM | HOP-92 > 100 µM | OVCAR-4 > 100 µM | UO-31 62.8 µM | HCC 2998 > 100 µM | SK-MEL-28 > 100 µM | SK-MEL-5 > 75.7 µM | Malme-3M > 49.9 µM

CC1Nc2ccccc2NC1C=C(C#N)C#N (stereo not given)
inactive: SR 5.61 µM | HOP-62 20.4 µM | SK-OV-3 21.8 µM | SF-539 13.2 µM | NCI-H460 19.4 µM | TK-10 19.6 µM | KM12 16.5 µM | RXF 393 16.6 µM | ACHN 18.3 µM | COLO 205 18.7 µM | HOP-92 15.1 µM | OVCAR-4 15.9 µM | UO-31 15 µM | HCC 2998 18.4 µM | SK-MEL-28 16.6 µM | SK-MEL-5 17.1 µM | Malme-3M 16.7 µM

Clc1ccc(OCc2nnc(CCCCCCCCc3nnc(COc4ccc(Cl)cc4Cl)o3)o2)c(Cl)c1
inactive: SK-OV-3 > 100 µM | DU-145 85.9 µM | NCI-H460 79.6 µM | TK-10 > 100 µM | KM12 95.1 µM | MDA-N > 100 µM | RXF 393 > 100 µM | ACHN > 100 µM | COLO 205 > 100 µM | HOP-92 41.1 µM | OVCAR-4 92.9 µM | UO-31 44.1 µM | MDA-MB-231 > 100 µM | HCC 2998 > 100 µM | SK-MEL-28 > 100 µM | SK-MEL-5 > 100 µM | Malme-3M 9.44 µM

COC(=O)C1Cc2c(OC)ccc(OC)c2CC(C(=O)OC)C1=O (stereo not given)
inactive: HOP-62 > 100 µM | SK-OV-3 > 100 µM | DU-145 > 100 µM | SF-539 > 100 µM | NCI-H460 > 100 µM | KM12 > 100 µM | MDA-N > 100 µM | RXF 393 > 100 µM | ACHN 63.5 µM | COLO 205 > 100 µM | HOP-92 44 µM | OVCAR-4 > 100 µM | UO-31 56 µM | MDA-MB-231 > 100 µM | HCC 2998 > 100 µM | SK-MEL-28 > 100 µM | SK-MEL-5 > 100 µM | Malme-3M > 100 µM

COc1cc(C2Oc3cc(-c4oc5cc(O)cc(O)c5c(=O)c4O)ccc3OC2CO)ccc1O (stereo not given) [DEHYDROSILYLBIN]
inactive: SR 4.61 µM | HOP-62 11.2 µM | SK-OV-3 21.4 µM | SF-539 4.24 µM | NCI-H460 3.72 µM | TK-10 10.9 µM | KM12 20.1 µM | RXF 393 2.31 µM | ACHN 7.64 µM | COLO 205 26.7 µM | HOP-92 10.5 µM | OVCAR-4 20.7 µM | UO-31 2.64 µM | HCC 2998 24.8 µM | SK-MEL-28 10.1 µM | SK-MEL-5 15.4 µM | Malme-3M 22.8 µM
